This is an account of results in US20040127411A1, “Methods for treating lung cancer using insulin-like growth factor binding protein-3” (Insmed, Inc., priority 2002, published 2004).

Series [1] in a line: Pharmacokinetics of rhIGFBP-3 after single SC injection in rats. The series is classed as in vivo.
Method: The purpose of this study was to characterize the pharmacokinetic profile of rhIGFBP-3 following a single SC administration to rats. Adult male rats (N=5/group) were administered doses of 3-30 mg/kg rhIGFBP-3 by bolus SC injection and blood specimens were collected for drug concentration analysis.
The subject of a further series is 3LL Lewis lung tumor. The experiment in a line: Treatment of 3LL murine Lewis lung tumors in C57BL6 mice. The series is classed as in vivo. As to conditions: for Mean Tumor Volume: day 23, mean ± SEM. As to the method:
Female C57BL6 mice (8 animals per group) received bilateral SC implants of 3LL Lewis lung tumor fragments on day 0 and were treated subcutaneously with vehicle, rhIGFBP-3 (3 or 10 mg/kg twice daily×21), carboplatin (25 or 50 mg/kg; IP; single dose) or a combination of agents beginning on day 2.

In series [2] the test system is MCF-7 human breast xenografts. The experiment in a line: Early treatment of MCF-7 human breast xenografts in CD1 nu/nu mice. It counts as in vivo. The procedure: Female CD1 nu/nu mice (12 animals per group) received SC implants of 5×10^6 MCF-7 cells. On the same day, mice received either vehicle or rhIGFBP-3 IP at a dose of 20 mg/kg. Mice were then treated with either vehicle or rhIGFBP-3 (20 mg/kg twice daily) for 10 weeks. Tumor volume was monitored beginning on week 2 and measured 3 times thereafter. […] In addition, the 3 tumors that did arise in the rhIGFBP-3 group were smaller than those in the control group.
A general note: In xenograft studies the graft and the host belong to different species.

Series [3] has as its system MCF-7 breast tumor xenografts. The experiment in a line: Treatment of established MCF-7 human breast tumors with rhIGFBP-3 and paclitaxel in balb/c nu/nu mice. The series is classed as in vivo. As to the method: Female balb/c nu/nu mice (8 animals per group) received bilateral SC implants of MCF-7 breast tumor fragments which were allowed to grow to volumes of 100-150 mm^3 prior to initiation of treatment. Upon establishment of the tumors, mice were treated with vehicle, rhIGFBP-3 (3, 10 or 30 mg/kg twice daily; SC×21), paclitaxel (10 or 20 mg/kg; IP; daily for 5 days) or a combination of agents. Tumors were measured twice weekly for 3 weeks and net tumor growth was calculated at each time point.

In series [4] the test system is LoVo colorectal carcinoma xenografts. The experiment in a line: Treatment of LoVo human colorectal carcinoma xenografts with rhIGFBP-3 and irinotecan in balb/c nu/nu mice. It counts as in vivo. The note with it: for effect after discontinuation of treatment: treatment discontinued day 21, monitored to day 40. As to the method: Female balb/c nu/nu mice (8 animals per group) received bilateral SC implants of LoVo colorectal carcinoma fragments which were allowed to grow to volumes of 100-150 mm3 prior to initiation of treatment. Upon establishment of the tumors, mice were treated with vehicle, rhIGFBP-3 (3, 10 or 30 mg/kg twice daily; SC x 21), irinotecan (10 or 20 mg/kg; IP; 4 doses at 4 day intervals) or a combination of agents. All treatment was discontinued on day 21 and mice were monitored for tumor response out to day 40. Net tumor growth was calculated at each time point.

Series [5] relates to MCF-7 human breast cancer cells. The experiment in a line: MCF-7 cell proliferation (MTT) with increasing rhIGFBP-3. The series is classed as cell-based. The note with it: 5% FBS, 4 days, increasing concentrations. The procedure: FIG. 5(A) depicts the MCF-7 breast cancer cell proliferation as assayed by MTT in increasing concentrations of rhIGFBP-3.
The purpose of this study was to evaluate the effects of rhIGFBP-3 alone and in combination with radiation therapy in MCF-7 human breast cancer cells. MCF-7 cells were plated and cultured in 5% FBS for 4 days with increasing concentrations of rhIGFBP-3 in the media.

In the next series the test system is BT474. Put plainly: Growth inhibition (MTT assay), BT474. It counts as cell-based, human. For orientation: Tetrazolium assays rely on reduction of a dye to a coloured formazan, in cell work by metabolically active cells.
The subject of another series is BT474/HerR. The experiment in a line: Growth inhibition (MTT assay), BT474/HerR. The series is classed as cell-based, human.
In the next series the test system is SKBR3. Put plainly: Growth inhibition (MTT assay), SKBR3. It counts as cell-based, human.
In the next series the test system is SKBR3/IGF-IR. Put plainly: Growth inhibition (MTT assay), SKBR3/IGF-IR. It counts as cell-based, human.
The test system of a further series is MCF-7/HER2-18. The experiment in a line: Growth inhibition (MTT assay), MCF-7/HER2-18. It counts as cell-based, human.
The conditions of series [6]: rat, in vivo, iv.
Method: (§1) The purpose of this study was to characterize the pharmacokinetic profile of rhIGFBP-3 following a single IV administration to rats. Adult male Sprague-Dawley rats (N=3/group) were administered doses of 0.8-160 mg/kg rhIGFBP-3 and blood specimens were collected for drug measurement.
The test system of series [7] is MCF-7 human breast cancer cells. The note with it: for cell survival: 1 μg/mL, day 12.
Method: In a second experiment, MCF-7 cells were exposed to increasing doses of irradiation and rhIGFBP-3 24 hours after plating. Cell survival was determined on day 12.
A short description of series [8]: Pharmacokinetics of rhIGFBP-3 after single IV administration to rats. As to conditions: for AUC / Cmax: mean ± SD.
Method: as §1
Where [9] appears, read: 20 mg/kg twice daily, after 10 weeks, mean ± SD.
[10] abbreviates: IV, 8.0 mg/kg vs 0.8 mg/kg (ten fold increase in dose).

Like-named read-outs stand apart in the source and are kept apart here. Marks after values point to notes of the source that are not given here.

“rhIGFBP-3: recombinant human insulin-like growth factor binding protein-3; preferred form from E. coli, native human sequence, lacks glycosylation”: the “absorption following SC administration” value in series [1] (SC) is “readily absorbed into the circulation”. The AUC (in general, the area under the concentration-time curve, a measure of exposure) in series [1] (SC, 3 mg/kg) came to 5347 ± 909 ng·h/mL; in [1] (SC, 10 mg/kg), 12999 ± 933 ng·h/mL; in [1] (SC, 30 mg/kg), 54476 ± 7517 ng·h/mL; in series [8] (IV, 0.8 mg/kg) it was 2172 ± 999 ng·h/mL; in series [8] (IV, 8.0 mg/kg) it was 10057 ± 1248 ng·h/mL; in series [8] (IV, 80 mg/kg), 215060 ± 39102 ng·h/mL. This molecule also gave an AUC in series [8] (IV, 160 mg/kg) of 287575 ± 64180 ng·h/mL. The CL/W was found to be 9.63 ± 2.03 mL/min/kg in series [1] (SC, 3 mg/kg); 12.9 ± 1 mL/min/kg in [1] (SC, 10 mg/kg); 9.33 ± 1.42 mL/min/kg in series [1] (SC, 30 mg/kg); 7.07 ± 3.12 mL/min/kg in [6] (0.8 mg/kg); 13.4 ± 1.62 mL/min/kg in series [6] (8 mg/kg); 6.33 ± 1.07 mL/min/kg in [6] (80 mg/kg). Besides, in [6] (160 mg/kg), the CL/W is 9.65 ± 2.42 mL/min/kg. The Cmax (as a rule, the maximum level reached in the sampled fluid or tissue) in [1] (SC, 3 mg/kg) came to 751 ± 120 ng/mL; in [1] (SC, 10 mg/kg) it was 2255 ± 217 ng/mL; in series [1] (SC, 30 mg/kg), 6924 ± 1021 ng/mL; in series [8] (IV, 0.8 mg/kg), 3067 ± 551 ng/mL; in series [8] (IV, 8.0 mg/kg), 4967 ± 1159 ng/mL; in [8] (IV, 160 mg/kg), 476667 ± 122202 ng/mL. Further, the Cmax in series [8] (IV) is 360333 ± 62772 ng/mL. Besides, the “increase in AUC compared to the 3 mg/kg group” value in [1] (SC, 10 mg/kg) was “approximately 2.5 fold”; in [1] (SC, 30 mg/kg), around 10 fold. In addition, the signs of toxicity entry in series [1] (single SC, 3-30 mg/kg) is listed as “No signs of toxicity”. The “Mean Tumor Volume” value was 289.00 ± 42.97 mm^3 with 3LL Lewis lung tumor (3 mg/kg twice daily SC x21), 149.73 ± 25.34* mm^3 in the series with 3LL Lewis lung tumor (10 mg/kg twice daily SC x21) and 37.7 ± 42.0 mm^3 in series [2] (setting [9]). Also, the “reduction in tumor volume compared with carboplatin” value in the series on 3LL Lewis lung tumor (10 mg/kg twice daily) is “equal to that observed with the standard chemotherapeutic agent carboplatin”. Besides, the “3LL Lewis lung tumor growth, single agent” value in the series on 3LL Lewis lung tumor (3 or 10 mg/kg twice daily SC) was “dose-dependently inhibited”. Besides, the “effect in combination with carboplatin” value in the series on 3LL Lewis lung tumor (rhIGFBP-3 3 or 10 mg/kg twice daily + carboplatin 25 or 50 mg/kg IP) is listed as “did not potentiate the effects of carboplatin”. In [2] (20 mg/kg twice daily IP, after 10 weeks), the “Number of Mice with Tumors” value is 3/12. Also, the “MCF-7 tumor establishment compared to control” value in [2] (20 mg/kg twice daily for 10 weeks) was “prevented MCF-7 tumor establishment”. For the same molecule, in series [2] (setting [9]), the “Mean Tumor Weight” value came out at 0.046 ± 0.047 g. Further, the “tumor volume compared to control, all mice in each group” value in series [2] (end of treatment, p≦0.05) is “significantly lower”. Moreover, in [3] (3, 10 or 30 mg/kg twice daily SC x21), the “net tumor growth, single agent” value was “did not inhibit net tumor growth”. Also, the “effect in combination with paclitaxel” value in series [3] (maximum effect at 10 mg/kg rhIGFBP-3 and 20 mg/kg paclitaxel) is recorded as “enhanced the effect of paclitaxel”. For the same molecule, the “net tumor growth, combination with irinotecan” value in series [4] (30 mg/kg rhIGFBP-3 + 10 mg/kg irinotecan) is “optimal results”. Further, in series [4] (30 mg/kg twice daily SC x21), the “inhibition of net tumor growth, single agent, vs 10 mg/kg irinotecan” value is “equally effective”. The “effect after discontinuation of treatment” value in series [4] is “persisting effect”. In addition, the “maximum growth suppression compared to control” value in [5] is reported as 50%. For the same molecule, the “Growth Inhibition (MTT Assay)” value in the series with BT474 (0.1-100 μg/ml) is 10-20%; with BT474/HerR (0.1-100 μg/ml), 10-26%; with SKBR3 (0.1-100 μg/ml), 20-40%; in the series on SKBR3/IGF-IR (0.1-100 μg/ml), 12-40%; in the series with MCF-7/HER2-18 (0.1-100 μg/ml), 15-55%. Moreover, the “effect when combined with Herceptin, in words” value is listed as “did not significantly enhance Herceptin sensitivity” in the series with BT474 (combined with Herceptin); “strong dose-dependent increase in Herceptin sensitivity” with BT474/HerR (combined with Herceptin); “modest effect” in the series on SKBR3 (combined with Herceptin); “strong dose-dependent increase in Herceptin sensitivity” with SKBR3/IGF-IR (combined with Herceptin); “marginal dose-dependent increase in growth inhibition” with MCF-7/HER2-18 (combined with Herceptin, compared to rhIGFBP-3 alone). For the same molecule, the “growth inhibition in words, single agent” value is on record as “less pronounced effect” with BT474/HerR (single agent), “marked dose-dependent growth inhibition” in the series with SKBR3/IGF-IR (single agent) and “marked dose-dependent growth inhibition” in the series on MCF-7/HER2-18 (single agent). Besides, the cell survival in series [7] (0 Gy) is reported as around 65%; in [7] (2 Gy) it was 37%; in series [7] (4 Gy), 21%; in series [7] (6 Gy), 5%. The “effect on radiation-induced cell death” value in series [7] (all radiation doses) was “accentuated this effect on cell death at all doses”. Besides, in series [8] (IV 0.8 mg/kg, four hours after administration, below quantitative limitation of the assay), the “drug concentration in the serum” value is below 300 ng/mL. The “fold increase in AUC” value in series [8] (setting [10]) was determined as 4.6 fold. Moreover, the “fold increase in Cmax” value in series [8] (setting [10]) is on record as 1.6 fold. Further, the “drug serum concentrations 8 hours after dosing” value in series [8] (IV, all dose groups other than 0.8 mg/kg) is listed as “detectable”. Moreover, the adverse clinical signs entry in series [8] (single IV, any dose tested (0.8-160 mg/kg)) is given as “no adverse clinical signs”.
In the case of `N.N.O=C([O-])C1(C(=O)[O-])CCC1.[Pt+2]` [Carboplatin, carboplatin, reference compound], the “Mean Tumor Volume” value in the series on 3LL Lewis lung tumor (25 mg/kg IP single dose) is listed as 144.92 ± 31.36* mm^3; in the series on 3LL Lewis lung tumor (50 mg/kg IP single dose), 187.36 ± 37.42* mm^3.
With `CCc1c2c(nc3ccc(OC(=O)N4CCC(N5CCCCC5)CC4)cc13)-c1cc3c(c(=O)n1C2)COC(=O)[C@]3(O)CC` [irinotecan, reference compound], the “effect after discontinuation of treatment” value in series [4] is on record as “persisting effect”.
